Reference: ChEMBL document CHEMBL5724914, “Linking interpersonal differences in gut microbiota composition and drug biotransformation activity” (2024)

Assay: (§1) The drug is tested on Z-025 corresponding to rabbit gut metagenome with ENA study accession number: PRJEB37062 and ENA sample accession number: ERS12561824 for biotransformation under anaerobic condition. The drug concentrations were measured over 9 timepoints collected between 0 and 24 hours of incubation by liquid-chromatography-coupled mass spectrometry (LC–MS)
Conditions: 2 µM
Further: call rule not given here.

Bacterial Biotransformation	Structure (SMILES)
Compound metabolized	OCCOCCN1CCN(C2=Nc3ccccc3Sc3ccccc32)CC1 [QUETIAPINE]
Compound NOT metabolized	COc1cc2nc(N3CCN(C(=O)c4ccco4)CC3)nc(N)c2cc1OC [PRAZOSIN]
Compound NOT metabolized	O=C(O)COCCN1CCN(C(c2ccccc2)c2ccc(Cl)cc2)CC1 (stereo not given) [CETIRIZINE]

Assay: as §1, with “Z-023” for “Z-025”, “to” for “to rabbit gut”, “ERS12561822” for “ERS12561824”
Conditions: 2 µM

Bacterial Biotransformation	Structure (SMILES)
Compound NOT metabolized	OCCOCCN1CCN(C2=Nc3ccccc3Sc3ccccc32)CC1 [QUETIAPINE]
Compound NOT metabolized	COc1cc2nc(N3CCN(C(=O)c4ccco4)CC3)nc(N)c2cc1OC [PRAZOSIN]
Compound metabolized	O=C(O)COCCN1CCN(C(c2ccccc2)c2ccc(Cl)cc2)CC1 (stereo not given) [CETIRIZINE]

Assay: as §1, with “Z-022” for “Z-025”, “mouse” for “rabbit”, “ERS12561821” for “ERS12561824”
Conditions: 2 µM

Bacterial Biotransformation	Structure (SMILES)
Compound NOT metabolized	OCCOCCN1CCN(C2=Nc3ccccc3Sc3ccccc32)CC1 [QUETIAPINE]
Compound NOT metabolized	COc1cc2nc(N3CCN(C(=O)c4ccco4)CC3)nc(N)c2cc1OC [PRAZOSIN]
Compound metabolized	O=C(O)COCCN1CCN(C(c2ccccc2)c2ccc(Cl)cc2)CC1 (stereo not given) [CETIRIZINE]

Assay: as §1, with “Z-021” for “Z-025”, “to” for “to rabbit gut”, “ERS12561820” for “ERS12561824”
Conditions: 2 µM

Bacterial Biotransformation	Structure (SMILES)
Compound NOT metabolized	OCCOCCN1CCN(C2=Nc3ccccc3Sc3ccccc32)CC1 [QUETIAPINE]
Compound NOT metabolized	COc1cc2nc(N3CCN(C(=O)c4ccco4)CC3)nc(N)c2cc1OC [PRAZOSIN]
Compound metabolized	O=C(O)COCCN1CCN(C(c2ccccc2)c2ccc(Cl)cc2)CC1 (stereo not given) [CETIRIZINE]

Assay: as §1, with “Z-011” for “Z-025”, “mouse” for “rabbit”, “ERS12561811” for “ERS12561824”
Conditions: 2 µM

Bacterial Biotransformation	Structure (SMILES)
Compound NOT metabolized	OCCOCCN1CCN(C2=Nc3ccccc3Sc3ccccc32)CC1 [QUETIAPINE]
Compound NOT metabolized	COc1cc2nc(N3CCN(C(=O)c4ccco4)CC3)nc(N)c2cc1OC [PRAZOSIN]
Compound NOT metabolized	O=C(O)COCCN1CCN(C(c2ccccc2)c2ccc(Cl)cc2)CC1 (stereo not given) [CETIRIZINE]

Assay: as §1, with “Z-006” for “Z-025”, “mouse” for “rabbit”, “ERS12561806” for “ERS12561824”
Conditions: 2 µM

Bacterial Biotransformation	Structure (SMILES)
Compound NOT metabolized	OCCOCCN1CCN(C2=Nc3ccccc3Sc3ccccc32)CC1 [QUETIAPINE]
Compound NOT metabolized	COc1cc2nc(N3CCN(C(=O)c4ccco4)CC3)nc(N)c2cc1OC [PRAZOSIN]
Compound NOT metabolized	O=C(O)COCCN1CCN(C(c2ccccc2)c2ccc(Cl)cc2)CC1 (stereo not given) [CETIRIZINE]

Assay: as §1, with “WLS-098” for “Z-025”, “human” for “rabbit”, “ERS12561754” for “ERS12561824”
Conditions: 2 µM

Bacterial Biotransformation	Structure (SMILES)
Compound metabolized	OCCOCCN1CCN(C2=Nc3ccccc3Sc3ccccc32)CC1 [QUETIAPINE]
Compound metabolized	COc1cc2nc(N3CCN(C(=O)c4ccco4)CC3)nc(N)c2cc1OC [PRAZOSIN]
Compound metabolized	O=C(O)COCCN1CCN(C(c2ccccc2)c2ccc(Cl)cc2)CC1 (stereo not given) [CETIRIZINE]

Assay: as §1, with “WLS-052” for “Z-025”, “human” for “rabbit”, “ERS12561747” for “ERS12561824”
Conditions: 2 µM

Bacterial Biotransformation	Structure (SMILES)
Compound NOT metabolized	OCCOCCN1CCN(C2=Nc3ccccc3Sc3ccccc32)CC1 [QUETIAPINE]
Compound NOT metabolized	COc1cc2nc(N3CCN(C(=O)c4ccco4)CC3)nc(N)c2cc1OC [PRAZOSIN]
Compound metabolized	O=C(O)COCCN1CCN(C(c2ccccc2)c2ccc(Cl)cc2)CC1 (stereo not given) [CETIRIZINE]

Assay: as §1, with “WLS-039” for “Z-025”, “human” for “rabbit”, “ERS12561746” for “ERS12561824”
Conditions: 2 µM

Bacterial Biotransformation	Structure (SMILES)
Compound NOT metabolized	OCCOCCN1CCN(C2=Nc3ccccc3Sc3ccccc32)CC1 [QUETIAPINE]
Compound NOT metabolized	COc1cc2nc(N3CCN(C(=O)c4ccco4)CC3)nc(N)c2cc1OC [PRAZOSIN]
Compound metabolized	O=C(O)COCCN1CCN(C(c2ccccc2)c2ccc(Cl)cc2)CC1 (stereo not given) [CETIRIZINE]

Assay: as §1, with “WLS-027” for “Z-025”, “human” for “rabbit”, “ERS12561744” for “ERS12561824”
Conditions: 2 µM

Bacterial Biotransformation	Structure (SMILES)
Compound metabolized	OCCOCCN1CCN(C2=Nc3ccccc3Sc3ccccc32)CC1 [QUETIAPINE]
Compound NOT metabolized	COc1cc2nc(N3CCN(C(=O)c4ccco4)CC3)nc(N)c2cc1OC [PRAZOSIN]
Compound metabolized	O=C(O)COCCN1CCN(C(c2ccccc2)c2ccc(Cl)cc2)CC1 (stereo not given) [CETIRIZINE]

Assay: as §1, with “WLS-010” for “Z-025”, “human” for “rabbit”, “ERS12561743” for “ERS12561824”
Conditions: 2 µM

Bacterial Biotransformation	Structure (SMILES)
Compound NOT metabolized	OCCOCCN1CCN(C2=Nc3ccccc3Sc3ccccc32)CC1 [QUETIAPINE]
Compound metabolized	COc1cc2nc(N3CCN(C(=O)c4ccco4)CC3)nc(N)c2cc1OC [PRAZOSIN]
Compound metabolized	O=C(O)COCCN1CCN(C(c2ccccc2)c2ccc(Cl)cc2)CC1 (stereo not given) [CETIRIZINE]

Conditions: human gut metagenome, 24 h, 2 µM

Bacterial Biotransformation	Structure (SMILES)
Compound NOT metabolized	OCCOCCN1CCN(C2=Nc3ccccc3Sc3ccccc32)CC1 [QUETIAPINE]
Compound NOT metabolized	COc1cc2nc(N3CCN(C(=O)c4ccco4)CC3)nc(N)c2cc1OC [PRAZOSIN]
Compound metabolized	O=C(O)COCCN1CCN(C(c2ccccc2)c2ccc(Cl)cc2)CC1 (stereo not given) [CETIRIZINE]

Conditions: human gut metagenome, 24 h, 2 µM
Remark: another data set of the same source

Bacterial Biotransformation	Structure (SMILES)
Compound NOT metabolized	OCCOCCN1CCN(C2=Nc3ccccc3Sc3ccccc32)CC1 [QUETIAPINE]
Compound NOT metabolized	COc1cc2nc(N3CCN(C(=O)c4ccco4)CC3)nc(N)c2cc1OC [PRAZOSIN]
Compound metabolized	O=C(O)COCCN1CCN(C(c2ccccc2)c2ccc(Cl)cc2)CC1 (stereo not given) [CETIRIZINE]

Conditions: human gut metagenome, 24 h, 2 µM
Remark: another data set of the same source

Bacterial Biotransformation	Structure (SMILES)
Compound NOT metabolized	OCCOCCN1CCN(C2=Nc3ccccc3Sc3ccccc32)CC1 [QUETIAPINE]
Compound metabolized	COc1cc2nc(N3CCN(C(=O)c4ccco4)CC3)nc(N)c2cc1OC [PRAZOSIN]
Compound metabolized	O=C(O)COCCN1CCN(C(c2ccccc2)c2ccc(Cl)cc2)CC1 (stereo not given) [CETIRIZINE]

Conditions: human gut metagenome, 24 h, 2 µM
Remark: another data set of the same source

Bacterial Biotransformation	Structure (SMILES)
Compound NOT metabolized	OCCOCCN1CCN(C2=Nc3ccccc3Sc3ccccc32)CC1 [QUETIAPINE]
Compound metabolized	COc1cc2nc(N3CCN(C(=O)c4ccco4)CC3)nc(N)c2cc1OC [PRAZOSIN]
Compound metabolized	O=C(O)COCCN1CCN(C(c2ccccc2)c2ccc(Cl)cc2)CC1 (stereo not given) [CETIRIZINE]

Conditions: human gut metagenome, 24 h, 2 µM
Remark: another data set of the same source

Bacterial Biotransformation	Structure (SMILES)
Compound metabolized	OCCOCCN1CCN(C2=Nc3ccccc3Sc3ccccc32)CC1 [QUETIAPINE]
Compound metabolized	COc1cc2nc(N3CCN(C(=O)c4ccco4)CC3)nc(N)c2cc1OC [PRAZOSIN]
Compound metabolized	O=C(O)COCCN1CCN(C(c2ccccc2)c2ccc(Cl)cc2)CC1 (stereo not given) [CETIRIZINE]

Conditions: human gut metagenome, 24 h, 2 µM
Remark: another data set of the same source

Bacterial Biotransformation	Structure (SMILES)
Compound metabolized	OCCOCCN1CCN(C2=Nc3ccccc3Sc3ccccc32)CC1 [QUETIAPINE]
Compound metabolized	COc1cc2nc(N3CCN(C(=O)c4ccco4)CC3)nc(N)c2cc1OC [PRAZOSIN]
Compound metabolized	O=C(O)COCCN1CCN(C(c2ccccc2)c2ccc(Cl)cc2)CC1 (stereo not given) [CETIRIZINE]

Conditions: human gut metagenome, 24 h, 2 µM
Remark: another data set of the same source

Bacterial Biotransformation	Structure (SMILES)
Compound NOT metabolized	OCCOCCN1CCN(C2=Nc3ccccc3Sc3ccccc32)CC1 [QUETIAPINE]
Compound NOT metabolized	COc1cc2nc(N3CCN(C(=O)c4ccco4)CC3)nc(N)c2cc1OC [PRAZOSIN]
Compound metabolized	O=C(O)COCCN1CCN(C(c2ccccc2)c2ccc(Cl)cc2)CC1 (stereo not given) [CETIRIZINE]

Conditions: human gut metagenome, 24 h, 2 µM
Remark: another data set of the same source

Bacterial Biotransformation	Structure (SMILES)
Compound NOT metabolized	OCCOCCN1CCN(C2=Nc3ccccc3Sc3ccccc32)CC1 [QUETIAPINE]
Compound NOT metabolized	COc1cc2nc(N3CCN(C(=O)c4ccco4)CC3)nc(N)c2cc1OC [PRAZOSIN]
Compound metabolized	O=C(O)COCCN1CCN(C(c2ccccc2)c2ccc(Cl)cc2)CC1 (stereo not given) [CETIRIZINE]

Conditions: human gut metagenome, 24 h, 2 µM
Remark: another data set of the same source

Bacterial Biotransformation	Structure (SMILES)
Compound metabolized	OCCOCCN1CCN(C2=Nc3ccccc3Sc3ccccc32)CC1 [QUETIAPINE]
Compound metabolized	COc1cc2nc(N3CCN(C(=O)c4ccco4)CC3)nc(N)c2cc1OC [PRAZOSIN]
Compound metabolized	O=C(O)COCCN1CCN(C(c2ccccc2)c2ccc(Cl)cc2)CC1 (stereo not given) [CETIRIZINE]
